The source made the active and inactive calls. The rule behind the calls is not given here.
Experiments:
Mus musculus [1] = experiment: Protection against imiquimod-induced Harlan Balb/c mouse model of psoriasis assessed as decrease in ear thickness at 10 mg/kg, po administered BID for 7 days measured on day 8 by dial gauge micrometer analysis; type: functional, organism-based; conditions: time 7.0 day
[2] = Toxicity in imiquimod-induced Harlan Balb/c mouse model of psoriasis assessed as effect on body weight at 10 mg/kg, po BID for 7 days; type: organism-based; conditions: in vivo, 168 h, time 7 day
[3] = target: T1, Bromodomain-containing protein 4 (Homo sapiens, UniProt O60885); experiment: Binding affinity to BRD4-BD1 (unknown origin)
[4] = target: T1, Bromodomain-containing protein 4; experiment: Inhibition of BRD4 in human PBMC assessed as reduction in LPS-induced TNFalpha secretion preincubated for 1 hr followed by LPS-stimulation and measured after 20 hrs by magnetic beads technique based assay
[5] = target: T2, Voltage-gated inwardly rectifying potassium channel KCNH2 (Homo sapiens, UniProt Q12809); experiment: Inhibition of human ERG
[6] = Dissociation constant, pKa of compound; type: physicochemical
[7] = target: T3, Mitogen-activated protein kinase 7 (Homo sapiens, UniProt Q13164); experiment: Inhibition of ERK5 (unknown origin)
PBMC [8] = experiment: Inhibition of IL-6 production in LPS-induced human PBMC preincubated for 1 hr followed by LPS-stimulation and measured after 20 hrs by magnetic beads technique based assay; type: functional, tissue-based; conditions: time 21.0 hrs
[9] = target: T1, Bromodomain-containing protein 4; experiment: Inhibition of BRD4-BD1 (unknown origin) by TR-FRET assay
[10] = target: T3, Mitogen-activated protein kinase 7; experiment: Inhibition of recombinant human ERK5 using myelin basic protein as substrate by [gamm33P]ATP based HotSpot radiometric assay
PBMC [11] = experiment: Inhibition of MCP-1 production in LPS-induced human PBMC preincubated for 1 hr followed by LPS-stimulation and measured after 20 hrs by magnetic beads technique based assay; type: functional, tissue-based; conditions: time 21.0 hrs
[12] = target: T2, Voltage-gated inwardly rectifying potassium channel KCNH2; experiment: Inhibition of human ERG stably expressed in CHO cells at holding potential of -80 mV incubated for 12 mins
[13] = Stability of compound in human liver microsomes assessed as parent compound remaining after 1 hr
[14] = target: T4, Bromodomain-containing protein 2 (Homo sapiens, UniProt P25440); experiment: Binding affinity to human partial length BRD2-BD1 (K71 to N194 residues) expressed in bacterial expression system by BROMOscan method
Homo sapiens [15] = species on record: Homo sapiens; experiment: Selectivity ratio of Kd for binding affinity to human partial length EP300 (A1040 to G1161 residues) expressed in bacterial expression system to Kd for binding affinity to human partial length BRD2-BD1 (K71 to N194 residues) expressed in bacterial expression system
Homo sapiens [16] = species on record: Homo sapiens; experiment: Selectivity ratio of Kd for binding affinity to human partial length EP300 (A1040 to G1161 residues) expressed in bacterial expression system to Kd for binding affinity to human partial length BRD4-BD1 (N44 to E168 residues) expressed in bacterial expression system
Homo sapiens [17] = species on record: Homo sapiens; experiment: Selectivity ratio of Kd for binding affinity to human partial length CREBBP (R1081 to G1197 residues) expressed in bacterial expression system to Kd for binding affinity to human partial length BRD4-BD2 (K333 to E460 residues) expressed in bacterial expression system
Homo sapiens [18] = species on record: Homo sapiens; experiment: Selectivity ratio of Kd for binding affinity to human partial length CREBBP (R1081 to G1197 residues) expressed in bacterial expression system to Kd for binding affinity to human partial length BRD4-BD1 (N44 to E168 residues) expressed in bacterial expression system
[19] = target: T5, Bromodomain-containing protein 3 (Homo sapiens, UniProt Q15059); experiment: Binding affinity to human partial length BRD3-BD2 (G306 to P416 residues) expressed in bacterial expression system by BROMOscan method
Homo sapiens [20] = species on record: Homo sapiens; experiment: Selectivity ratio of Kd for binding affinity to human partial length EP300 (A1040 to G1161 residues) expressed in bacterial expression system to Kd for binding affinity to human partial length BRDT-BD1 (N21 to E137 residues) expressed in bacterial expression system
[21] = target: T6, Bromodomain testis-specific protein (Homo sapiens, UniProt Q58F21); experiment: Binding affinity to human partial length BRDT-BD2 (K250 to E382 residues) expressed in bacterial expression system by BROMOscan method
Homo sapiens [22] = species on record: Homo sapiens; experiment: Selectivity ratio of Kd for binding affinity to human partial length EP300 (A1040 to G1161 residues) expressed in bacterial expression system to Kd for binding affinity to human partial length BRD2-BD2 (E348 to D455 residues) expressed in bacterial expression system
[23] = target: Histone acetyltransferase p300 (Homo sapiens, UniProt Q09472); experiment: Binding affinity to human partial length EP300 (A1040 to G1161 residues) expressed in bacterial expression system by BROMOscan method
Homo sapiens [24] = species on record: Homo sapiens; experiment: Selectivity ratio of Kd for binding affinity to human partial length EP300 (A1040 to G1161 residues) expressed in bacterial expression system to Kd for binding affinity to human partial length BRD4-BD2 (K333 to E460 residues) expressed in bacterial expression system
[25] = target: T6, Bromodomain testis-specific protein; experiment: Binding affinity to human partial length BRDT-BD1 (N21 to E137 residues) expressed in bacterial expression system by BROMOscan method
[26] = target: T1, Bromodomain-containing protein 4; experiment: Binding affinity to human partial length BRD4-BD1 (N44 to E168 residues) expressed in bacterial expression system by BROMOscan method
[27] = Toxicity in imiquimod-induced Harlan Balb/c mouse model of psoriasis assessed as effect on body weight at 3 to 30 mg/kg, po BID for 7 days; type: organism-based; conditions: in vivo, 168 h, dose 3-30 mg/kg, time 7 day
Homo sapiens [28] = species on record: Homo sapiens; experiment: Selectivity ratio of Kd for binding affinity to human partial length CREBBP (R1081 to G1197 residues) expressed in bacterial expression system to Kd for binding affinity to human partial length BRDT-BD1 (N21 to E137 residues) expressed in bacterial expression system
[29] = target: T5, Bromodomain-containing protein 3; experiment: Binding affinity to human partial length BRD3-BD1 (P24 to E144 residues) expressed in bacterial expression system by BROMOscan method
CREB-binding protein = CREB-binding protein (Homo sapiens, UniProt Q92793); experiment: Binding affinity to human partial length CREBBP (R1081 to G1197 residues) expressed in bacterial expression system by BROMOscan method
Mus musculus [30] = experiment: Protection against imiquimod-induced po dosed Harlan Balb/c mouse model of psoriasis assessed as decrease in ear thickness administered BID for 7 days measured on day 8 by dial gauge micrometer analysis; type: functional, organism-based; conditions: dose 3-30 mg/kg, time 7.0 day
[31] = target: T1, Bromodomain-containing protein 4; experiment: Binding affinity to human partial length BRD4-BD2 (K333 to E460 residues) expressed in bacterial expression system by BROMOscan method
Homo sapiens [32] = species on record: Homo sapiens; experiment: Selectivity ratio of Kd for binding affinity to human partial length EP300 (A1040 to G1161 residues) expressed in bacterial expression system to Kd for binding affinity to human partial length BRDT-BD2 (K250 to E382 residues) expressed in bacterial expression system
Homo sapiens [33] = species on record: Homo sapiens; experiment: Selectivity ratio of Kd for binding affinity to human partial length CREBBP (R1081 to G1197 residues) expressed in bacterial expression system to Kd for binding affinity to human partial length BRD2-BD2 (E348 to D455 residues) expressed in bacterial expression system
Homo sapiens [34] = species on record: Homo sapiens; experiment: Selectivity ratio of Kd for binding affinity to human partial length CREBBP (R1081 to G1197 residues) expressed in bacterial expression system to Kd for binding affinity to human partial length BRDT-BD2 (K250 to E382 residues) expressed in bacterial expression system
[35] = target: T4, Bromodomain-containing protein 2; experiment: Binding affinity to human partial length BRD2-BD2 (E348 to D455 residues) expressed in bacterial expression system by BROMOscan method
Homo sapiens [36] = species on record: Homo sapiens; experiment: Selectivity ratio of Kd for binding affinity to human partial length CREBBP (R1081 to G1197 residues) expressed in bacterial expression system to Kd for binding affinity to human partial length BRD3-BD1 (P24 to E144 residues) expressed in bacterial expression system
Homo sapiens [37] = species on record: Homo sapiens; experiment: Selectivity ratio of Kd for binding affinity to human partial length EP300 (A1040 to G1161 residues) expressed in bacterial expression system to Kd for binding affinity to human partial length BRD3-BD1 (P24 to E144 residues) expressed in bacterial expression system
Homo sapiens [38] = species on record: Homo sapiens; experiment: Selectivity ratio of Kd for binding affinity to human partial length CREBBP (R1081 to G1197 residues) expressed in bacterial expression system to Kd for binding affinity to human partial length BRD2-BD1 (K71 to N194 residues) expressed in bacterial expression system
Homo sapiens [39] = species on record: Homo sapiens; experiment: Selectivity ratio of Kd for binding affinity to human partial length EP300 (A1040 to G1161 residues) expressed in bacterial expression system to Kd for binding affinity to human partial length BRD3-BD2 (G306 to P416 residues) expressed in bacterial expression system
Homo sapiens [40] = species on record: Homo sapiens; experiment: Selectivity ratio of Kd for binding affinity to human partial length CREBBP (R1081 to G1197 residues) expressed in bacterial expression system to Kd for binding affinity to human partial length BRD3-BD2 (G306 to P416 residues) expressed in bacterial expression system

T2 sequence (Q12809 whole entry): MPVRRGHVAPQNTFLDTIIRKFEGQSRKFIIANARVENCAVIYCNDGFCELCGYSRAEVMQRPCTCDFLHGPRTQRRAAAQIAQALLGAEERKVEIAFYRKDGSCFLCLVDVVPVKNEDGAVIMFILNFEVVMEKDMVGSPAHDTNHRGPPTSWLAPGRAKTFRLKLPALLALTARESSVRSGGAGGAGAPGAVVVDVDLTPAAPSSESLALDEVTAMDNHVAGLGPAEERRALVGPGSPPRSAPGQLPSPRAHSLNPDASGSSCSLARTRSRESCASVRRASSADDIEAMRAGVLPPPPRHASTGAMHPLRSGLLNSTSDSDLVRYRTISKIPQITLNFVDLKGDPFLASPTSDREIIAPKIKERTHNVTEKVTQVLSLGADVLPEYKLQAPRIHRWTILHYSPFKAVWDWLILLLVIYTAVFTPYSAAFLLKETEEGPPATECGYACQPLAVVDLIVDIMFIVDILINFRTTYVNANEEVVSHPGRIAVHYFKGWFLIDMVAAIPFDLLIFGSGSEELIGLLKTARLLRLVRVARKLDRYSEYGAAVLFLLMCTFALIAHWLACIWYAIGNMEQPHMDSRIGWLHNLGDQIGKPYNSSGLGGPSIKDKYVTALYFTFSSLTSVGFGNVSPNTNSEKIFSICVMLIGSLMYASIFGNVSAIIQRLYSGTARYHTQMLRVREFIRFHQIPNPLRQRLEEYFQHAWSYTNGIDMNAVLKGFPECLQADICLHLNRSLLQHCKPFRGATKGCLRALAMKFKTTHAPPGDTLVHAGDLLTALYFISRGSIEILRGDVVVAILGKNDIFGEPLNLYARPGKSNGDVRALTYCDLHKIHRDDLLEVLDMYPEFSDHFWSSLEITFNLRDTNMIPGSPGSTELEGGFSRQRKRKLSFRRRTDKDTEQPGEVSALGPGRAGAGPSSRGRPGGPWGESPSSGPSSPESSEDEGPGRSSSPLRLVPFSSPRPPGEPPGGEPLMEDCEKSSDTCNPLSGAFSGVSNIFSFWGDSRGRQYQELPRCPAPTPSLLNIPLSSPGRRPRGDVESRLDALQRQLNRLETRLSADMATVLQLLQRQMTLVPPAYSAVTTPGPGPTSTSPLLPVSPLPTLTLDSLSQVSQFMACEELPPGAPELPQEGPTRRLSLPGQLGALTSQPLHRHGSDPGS
T3 sequence (Q13164 whole entry): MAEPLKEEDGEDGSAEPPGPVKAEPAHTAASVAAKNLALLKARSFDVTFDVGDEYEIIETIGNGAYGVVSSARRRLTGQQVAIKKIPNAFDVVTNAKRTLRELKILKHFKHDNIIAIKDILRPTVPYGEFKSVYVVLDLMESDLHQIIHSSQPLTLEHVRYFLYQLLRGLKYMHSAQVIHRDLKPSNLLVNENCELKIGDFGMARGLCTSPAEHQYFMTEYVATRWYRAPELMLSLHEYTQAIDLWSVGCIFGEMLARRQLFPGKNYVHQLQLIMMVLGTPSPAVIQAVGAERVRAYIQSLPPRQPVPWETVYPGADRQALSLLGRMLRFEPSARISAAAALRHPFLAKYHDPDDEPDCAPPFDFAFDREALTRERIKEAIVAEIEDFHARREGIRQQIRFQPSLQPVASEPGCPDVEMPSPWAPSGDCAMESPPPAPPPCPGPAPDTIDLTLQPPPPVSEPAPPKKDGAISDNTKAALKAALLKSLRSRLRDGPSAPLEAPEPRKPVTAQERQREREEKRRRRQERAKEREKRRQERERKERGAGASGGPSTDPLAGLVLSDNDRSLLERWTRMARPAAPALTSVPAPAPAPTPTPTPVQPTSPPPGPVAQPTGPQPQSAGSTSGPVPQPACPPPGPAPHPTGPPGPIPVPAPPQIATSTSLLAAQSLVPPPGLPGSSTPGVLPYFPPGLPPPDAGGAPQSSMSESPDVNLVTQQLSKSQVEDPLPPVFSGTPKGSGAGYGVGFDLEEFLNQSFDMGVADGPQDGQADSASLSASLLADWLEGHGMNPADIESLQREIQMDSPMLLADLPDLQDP
T5 sequence (Q15059 whole entry, the tested form may be a part): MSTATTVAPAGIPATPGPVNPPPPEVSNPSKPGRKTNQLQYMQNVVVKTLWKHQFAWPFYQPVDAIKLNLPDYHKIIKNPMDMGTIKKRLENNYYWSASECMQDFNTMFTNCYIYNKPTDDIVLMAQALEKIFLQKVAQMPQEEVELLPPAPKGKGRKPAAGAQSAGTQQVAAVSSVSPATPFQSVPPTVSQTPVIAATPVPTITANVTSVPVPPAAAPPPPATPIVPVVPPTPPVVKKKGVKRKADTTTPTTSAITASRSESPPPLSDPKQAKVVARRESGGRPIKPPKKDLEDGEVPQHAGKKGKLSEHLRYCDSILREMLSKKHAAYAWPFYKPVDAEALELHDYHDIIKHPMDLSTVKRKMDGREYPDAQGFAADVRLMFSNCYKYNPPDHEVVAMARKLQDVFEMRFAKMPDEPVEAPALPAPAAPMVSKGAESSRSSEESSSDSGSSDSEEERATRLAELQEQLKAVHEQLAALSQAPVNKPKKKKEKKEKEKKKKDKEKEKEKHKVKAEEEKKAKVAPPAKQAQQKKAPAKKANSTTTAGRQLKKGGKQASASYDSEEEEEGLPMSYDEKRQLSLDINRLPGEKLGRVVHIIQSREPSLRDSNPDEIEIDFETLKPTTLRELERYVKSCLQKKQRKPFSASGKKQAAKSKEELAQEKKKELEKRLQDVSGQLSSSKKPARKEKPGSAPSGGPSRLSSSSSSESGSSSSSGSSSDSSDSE
T4 sequence (P25440 whole entry, the tested form may be a part): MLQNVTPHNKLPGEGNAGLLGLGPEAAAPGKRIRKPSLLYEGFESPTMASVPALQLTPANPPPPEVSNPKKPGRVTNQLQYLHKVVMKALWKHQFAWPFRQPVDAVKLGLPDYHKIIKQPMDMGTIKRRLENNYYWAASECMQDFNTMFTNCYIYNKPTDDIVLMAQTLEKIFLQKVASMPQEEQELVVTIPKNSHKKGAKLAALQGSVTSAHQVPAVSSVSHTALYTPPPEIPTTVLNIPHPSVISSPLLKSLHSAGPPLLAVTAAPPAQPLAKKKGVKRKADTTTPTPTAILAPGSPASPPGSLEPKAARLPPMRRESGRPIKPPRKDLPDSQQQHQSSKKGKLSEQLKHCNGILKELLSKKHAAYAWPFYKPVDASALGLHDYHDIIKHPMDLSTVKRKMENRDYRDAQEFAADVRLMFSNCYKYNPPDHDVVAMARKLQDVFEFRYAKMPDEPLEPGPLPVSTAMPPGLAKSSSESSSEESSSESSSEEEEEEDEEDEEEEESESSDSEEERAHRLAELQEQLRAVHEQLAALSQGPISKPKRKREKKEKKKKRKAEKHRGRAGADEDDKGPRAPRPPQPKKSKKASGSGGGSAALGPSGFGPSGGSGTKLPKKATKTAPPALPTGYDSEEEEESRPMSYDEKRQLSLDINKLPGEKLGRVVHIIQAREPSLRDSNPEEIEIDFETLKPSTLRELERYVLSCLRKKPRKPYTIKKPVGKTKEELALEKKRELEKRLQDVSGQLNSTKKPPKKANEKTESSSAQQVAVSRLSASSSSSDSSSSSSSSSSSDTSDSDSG

## CCOc1cc([C@@H](CS(C)(=O)=O)N2C(=O)c3cccc(NC(C)=O)c3C2=O)ccc1OC
Mus musculus [1]
  Activity: Active
[2]
  Activity: Non-Toxic

## CN1C(=O)c2ccccc2N(C)c2cc(N[C@H]3CC[C@H](O)CC3)ncc21
[3]
  Kd: 130 nM
[4]
  EC50: 2110 nM
[5]
  IC50: > 10000 nM
[6]
  pKa: 5.06
[7]
  IC50: 89 nM
PBMC [8]
  inhibition: Active
[9]
  IC50: 5990 nM
[10]
  IC50: 89 nM
PBMC [11]
  inhibition: Active

## CN1C(=O)c2ccccc2S(=O)(=O)c2cc(N[C@H]3CC[C@H](O)CC3)ncc21
PBMC [8]
  inhibition: Active
[9]
  IC50: > 30000 nM
PBMC [11]
  inhibition: Active

## CN1C(=O)c2c(F)ccc(F)c2Oc2cc(N[C@H]3CC[C@H](O)CC3)ncc21
[12]
  IC50: > 10000 nM
[4]
  EC50: 430 nM
PBMC [8]
  inhibition: Active
[9]
  IC50: 2010 nM
[10]
  IC50: 213 nM
PBMC [11]
  inhibition: Active
[13]
  remaining at 1 h: 90%

## CCO[C@H]1CC[C@H](Nc2cc3c(cn2)N(C)C(=O)c2ccccc2N3C)CC1
[4]
  EC50: 2740 nM
PBMC [8]
  inhibition: Active
[9]
  IC50: 9990 nM
[10]
  IC50: 81 nM
PBMC [11]
  inhibition: Active

## COc1cccc2c1Oc1cc(N[C@H]3CC[C@H](O)CC3)ncc1N(C)C2=O
[12]
  IC50: > 10000 nM
[4]
  EC50: 1380 nM
PBMC [8]
  inhibition: Active
[9]
  IC50: 2820 nM
[10]
  IC50: 1100 nM
PBMC [11]
  inhibition: Active
[13]
  remaining at 1 h: 85%

## CN1C(=O)c2c(F)cccc2Oc2cc(N[C@H]3CC[C@H](O)CC3)ncc21
[14]
  Kd: 71 nM
Homo sapiens [15]
  Selectivity ratio: 20
Homo sapiens [16]
  Selectivity ratio: 20
Homo sapiens [17]
  Selectivity ratio: 20
Homo sapiens [18]
  Selectivity ratio: 20
[19]
  Kd: 140 nM
Homo sapiens [20]
  Selectivity ratio: 20
[21]
  Kd: 220 nM
[12]
  IC50: > 10000 nM
Homo sapiens [22]
  Selectivity ratio: 20
[23]
  Kd: 1200 nM
Homo sapiens [24]
  Selectivity ratio: 20
[25]
  Kd: 170 nM
[26]
  Kd: 78 nM
[4]
  EC50: 440 nM
[27]
  Activity: Non-Toxic
Homo sapiens [28]
  Selectivity ratio: 20
[29]
  Kd: 52 nM
CREB-binding protein
  Kd: 1900 nM
Mus musculus [30]
  Activity: Dose-dependent effect
[31]
  Kd: 72 nM
Homo sapiens [32]
  Selectivity ratio: 20
Homo sapiens [33]
  Selectivity ratio: 20
Homo sapiens [34]
  Selectivity ratio: 20
[35]
  Kd: 160 nM
PBMC [8]
  inhibition: Active
[9]
  IC50: 1270 nM
Homo sapiens [36]
  Selectivity ratio: 20
[10]
  IC50: 131 nM
Mus musculus [1]
  Activity: Active
PBMC [11]
  inhibition: Active
Homo sapiens [37]
  Selectivity ratio: 20
[13]
  remaining at 1 h: 100%
Homo sapiens [38]
  Selectivity ratio: 20
Homo sapiens [39]
  Selectivity ratio: 20
Homo sapiens [40]
  Selectivity ratio: 20

— ChEMBL document CHEMBL4715913, “Discovery of benzo[f]pyrido[4,3-b][1,4]oxazepin-10-one derivatives as orally available bromodomain and extra-terminal domain (BET) inhibitors with efficacy in an in vivo psoriatic animal model” (Bioorg Med Chem, 2021)
